Several values for one entry are separate records, joined by “and”; a condition that tells them apart may be missing. Identical values can stand only once.
Assays:
Factor VII = assay: In vivo mouse Factor VII siRNA knockdown with lipid nanoparticles; design: species or system C57BL/6 mice; conditions: intravenous, mice, 48 hours
Text: The first pair of numbers denotes the number of carbons in the ester, including the carbonyl, for L1 and L2; the pair of numbers in the parenthesis denotes the number of carbons in each branch of the branched alkyl, R1 or if R2 is also branched, R1/R2 (an asterisk denotes a double bond); the number of carbons in R3 is given; and the last line denotes the substitution for R4 and R5. The ATX number is given for reference herein. Calculated Log D values (c-Log D) and calculated pKa (c-pKa) values are given, as well as measured pKa in parenthesis (measured in the Formulation milieu). The c-Log D and c-pKa values are generated by ACD Labs Structure Designer v12.0. Bioactivity is percentage in vivo Factor VII knockdown at a dose of 0.03 mg/kg, unless otherwise designated.
Using a liver-directed in vivo screen of the liposome libraries, a series of compounds were tested that facilitate high levels of siRNA mediated gene silencing in hepatocytes, the cells comprising the liver parenchyma. Factor VII, a blood-clotting factor, is a suitable target gene for assaying functional siRNA delivery to liver. Because this factor is produced specifically in hepatocytes, gene silencing indicates successful delivery to parenchyma, as opposed to delivery to the cells of the reticulo-endothelial system (e.g., Kupffer cells). Furthermore, Factor VII is a secreted protein that can be readily measured in serum, obviating the need to euthanize animals. Silencing at the mRNA level can be readily determined by measuring levels of protein. This is because the protein's short half-life (2-5 hour). Compositions with siRNA directed to […] were Formulated with the lipid, and comparator sample phosphate-buffered saline (PBS). Female C57BL/6 mice (6-8 week old) were used for FVII siRNA knockdown (KD) experiments.
All Formulations were administered intravenously via tail vein injection at a dose of 0.03 and 0.1 mg/kg at a dosing volume of […]. Terminal blood collection was performed via cardiac puncture under 2% isoflurane at 48 hours after Formulation injections. Blood was collected into 0.109 M citrate buffer tube and processed by centrifugation at 1200 G for 10 min. Plasma was collected and Factor VII protein levels were analyzed by chromogenic assay (Biophen FVII, Aniara Corporation). A standard curve was constructed using samples from PBS-injected mice and relative Factor VII expression was determined by comparing treated groups to untreated PBS control.

[1] = Measured pKa of cationic lipids in LNP or micellar formulations by TNS fluorescence; format: physicochemical; conditions: for Δ measured pKa vs ATX-0002: change on shortening the ester
Method: pKa of cationic lipids in LNP or micellar Formulations were measured by the procedure of Jayaraman, 2012, Angew. Chem. Int. Ed., 51:8529-33, hereby incorporated by reference. Lipid micelles or LNPs are diluted to 1 mM total lipids in universal buffer with a pH range between 3 and 12 in presence of 0.06 mg/mL 6-(p-toluidino)-2-naphthalenesulfonic acid sodium salt (TNS) reagent (Sigma Aldrich), a pH sensitive fluorescence probe. The anionic TNS molecule fluoresces when associated with the surface of positively charged membranes but is not fluorescent when free in solution, allowing measurement of pKa. The TNS signal is measured on a spectral plate reader. The TNS signal is plotted as function of the pH and analyzed using a non-linear (Boltzman) to determine the pKa.
Reagents used in the assay include • Hepes free acid, CAS: 7365-45-9 (VWR, 0511-1KG or equivalent) • MES, HPLC grade: (Sigma 105228-100G or equivalent) • Ammonium acetate, HPLC grade: (Sigma 90335-100 mL or equivalent) • Sodium chloride, HPLC grade (VWR EM-MX0475-1 or equivalent) • TNS (Sigma-Aldrich T9792-250 mg or equivalent) • Hydrochloric acid • DMSO • DPBS without calcium and magnesium (GE, SH30028.02 or equivalent) • H2O, HPLC grade (OmniSolv, WX0004-1 or equivalent)
To prepare a stock solution of Universal Buffer (UB) in a polystyrene sterile storage bottle, prepare 1 L using the following table.
Reagents are sterile filtered through a 0.2 μm filter. Preparation of UB solution includes adding 5 mL of 1 M HCl to a 350 mL stock solution.
To prepare a pH ladder, centrifuge tubes (50 mL) with 20 mL UB buffer are used. (pH ˜3) and differing amounts of 2 N NaOH. Stock solutions of TNS at 1 mg/mL in DMSO. 60 μL of TNS at 1 mg/mL is added to 940 μL water to reach a working solution concentration of 0.06 mg/mL. Five test samples, 1 mL of LNP sample in PBS at 1 mM total lipid, and 1 reference sample are analyzed per plate. Samples at different pH values are prepared in wells in which 25 μL of 0.06 mg/mL TNS is added. 15 μL of test samples is added per well. The microplate is incubated for 15 minutes at room temperature in the dark. TNS template can be used to format data from the plate reader. Perform non-linear (Boltzman) regression analysis of the samples in Origin Pro 8 or equivalent software.

[2] = measured in the Formulation milieu, TNS fluorescence, 1 mM total lipids

SMILES | Bioactivity: percentage in vivo Factor VII knockdown (Factor VII; dose 0.03 mg/kg) [percentage] | pKa [1, 2] | other results
CCCCCC/C=C\COC(=O)CN(CC(=O)OC(CCCCCCCC)CCCCCCCC)C(=O)SCCCCN(CC)CC | 97 | 6.9 | 
CCCCCC/C=C\COC(=O)CCCCCCCN(CCCCCCCC(=O)OC(CCCCCCCC)CCCCCCCC)C(=O)SCCN(C)C [ATX-0096] | 40 | 5.59 | 
CCCCCC/C=C\COC(=O)CCCN(CCCC(=O)OC(CCCCCCCC)CCCCCCCC)C(=O)SCCCN(CC)CC | 75 | 6.58 | 
CCCCCC(CCCCC)OC(=O)CCCN(CCCC(=O)OC(CCCCC)CCCCC)C(=O)SCCCN(C)C |  | 6.8 | Bioactivity: percentage in vivo Factor VII knockdown (Factor VII; dose 0.1 mg/kg): 14 (0.1 mg/ kg) percentage
CCCCCC/C=C\COC(=O)CCCCCCN(CCCCCCC(=O)OC(CCCCCC)CCCCCC)C(=O)SCCN(C)C | 66 | 5.67 | 
CCCCCC(CCCCC)OC(=O)CN(CC(=O)OC(CCCCC)CCCCC)C(=O)SCCCN(C)C [drawing 52] | 0 |  | (pKa) measured pKa [1, 2]: 6.28 and 6.17
CCCCCC/C=C\COC(=O)CN(CC(=O)OC(CCCCC)CCCCC)C(=O)SCCN(C)C [ATX-0063] | 0 | 5.39 | Δ measured pKa vs ATX-0002 [1]: −0.7
CCCCCC/C=C\COC(=O)CCCN(CC(=O)OC(CCCCCCC)CCCCCCC)C(=O)SCCN(C)C | 40 | 5.83 | 
CCCCCC/C=C\COC(=O)CN(CC(=O)OC(CCCCCCCC)CCCCCCCC)C(=O)SCCCCN(C)C | 90 | 6.69 | 
CCCCCC/C=C\COC(=O)CCCN(CC(=O)OC(CCCCCCC)CCCCCCC)C(=O)SCCCN(CC)CC | 70 | 6.53 | 
CCC/C=C/CCC(CC/C=C/CCC)OC(=O)CCCN(CCCCCC(=O)OC/C=C\CCCCCC)C(=O)SCCN(C)C | 75 | 5.93 | 
CCC/C=C/CCC(CC/C=C/CCC)OC(=O)CCCCCCN(CCCCCCC(=O)OC/C=C\CCCCCC)C(=O)SCCN(C)C | 67 | 5.68 | 
CCCCCC/C=C\COC(=O)CN(CC(=O)OC(CCCCCCC)CCCCCCCC)C(=O)SCCN(C)C (stereo not drawn) [ATX-0064] | 0 | 5.14 | Δ measured pKa vs ATX-0002 [1]: −0.90
CCCCCC/C=C\COC(=O)CCCCCCCN(CCCCCCCC(=O)OC(CCCCC)CCCCC)C(=O)SCCN(C)C | 68 | 5.81 | 
CCCCCC/C=C\COC(=O)CCCN(CCCC(=O)OC(CCCCCCC)CCCCCCC)C(=O)SCCCN(CC)CC | 96 | 6.66 | 
CCCCCC/C=C\COC(=O)CCCN(CC(=O)OC(CCCCCCC)CCCCCCC)C(=O)SCCCN(C)C | 53 | 6.85 | 
CCCCCC/C=C\COC(=O)CN(CC(=O)OC(CCCCCCC)CCCCCCC)C(=O)SCCCN(C)C | 62 | 6.44 | 
CCCCCCCC(CCCCCCC)OC(=O)CCCN(CCCC(=O)OC(CCCCCCC)CCCCCCC)C(=O)SCCCN(CC)CC | 97 | 6.31 | 

SMILES | Bioactivity: percentage in vivo Factor VII knockdown (Factor VII; dose 0.03 mg/kg) [percentage] | pKa [1, 2] | other results
CCCCCC/C=C\COC(=O)CCCN(CCCC(=O)OC(CCCCCC)CCCCCCC)C(=O)SCCN(C)C (stereo not drawn) [ATX-0058] | 86 | 5.95 | Factor VII knockdown activity compared with ATX-002 (FIG. 18) (Factor VII; both at 0.03 and 0.1 mg/kg): substantially more effective than ATX-002; Δ measured pKa vs ATX-0002 [1]: no impact
CCCCCC(CCCCC)OC(=O)CN(CC(=O)OC(CCCCC)CCCCC)C(=O)SCCCN(CC)CC |  | 6.21 | 
CCCCCC/C=C\COC(=O)CCCCCCCN(CCCC(=O)OC(CCCCCCC)CCCCCCC)C(=O)SCCN(C)C | 73 | 5.38 | 
CCCCCC/C=C\COC(=O)CCCCCN(CCCCCC(=O)OC(CCCCCCCC)CCCCCCCC)C(=O)SCCN(C)C | 85 | 5.82 | 
CCCCCC/C=C\COC(=O)CCCCCN(CCC(=O)OC(CCCCCCC)CCCCCCC)C(=O)SCCN(C)C [drawing 82] | 43 | 5.77 | 
CCCCCCCC(CCCCCCC)OC(=O)CN(CC(=O)OC(CCCCCCC)CCCCCCC)C(=O)SCCCN(C)C | 25 | 5.68 | 
CCCCCC(CCCCC)OC(=O)CCCN(CCCC(=O)OC(CCCCC)CCCCC)C(=O)SCCCN(CC)CC |  | 5.56 | Bioactivity: percentage in vivo Factor VII knockdown (Factor VII; dose 0.1 mg/kg): 27 (0.1 mg/ kg) percentage
CCCCCC/C=C\COC(=O)CCCN(CCCC(=O)OC(CCCCCCCC)CCCCCCCC)C(=O)SCCN(C)C [drawing 76] | 80 | 6.06 | 
CCCCCC/C=C\COC(=O)CN(CC(=O)OC(CCCCCCCC)CCCCCCCC)C(=O)SCCCN(C)C | 97 | 6.38 | 
CCCCCC/C=C\COC(=O)CCCCCN(CCCCCC(=O)OC(CCCCCCC)CCCCCCC)C(=O)SCCCN(CC)CC | 95 | 6.45 | 
CCCCCC/C=C\COC(=O)CN(CC(=O)OC(CCCCCCCC)CCCCCCCC)C(=O)SCCN(C)C [ATX-0061] | 0 | 5.13 | Δ measured pKa vs ATX-0002 [1]: −0.90
CCCCCC/C=C\COC(=O)CN(CC(=O)OC(CCCCCCCC)CCCCCCCC)C(=O)SCCCN(CC)CC | 82 | 6.2 | 
CCCCCCC(CCCCC)OC(=O)CCCN(CCCCC(=O)OC(CCCCC)CCCCC)C(=O)SCCN(C)C (stereo not drawn) [ATX-0085] | 56 |  | 
CCCCCC/C=C\COC(=O)CCCCCN(CCCCCC(=O)OC(CCCCCCC)CCCCCCC)C(=O)SCCN(C)C | 91 | 5.93 | 
CCCCCC/C=C\COC(=O)CCCCCCCN(CCCCCCCC(=O)OC(CCCCCCC)CCCCCCC)C(=O)SCCN(C)C [ATX-0097] | 71 | 5.89 | 
CCC/C=C/CCC(CC/C=C/CCC)OC(=O)CCCCCN(CCCCCC(=O)OC/C=C\CCCCCC)C(=O)SCCN(C)C | 82 | 5.94 | 
CCCCCCCC(CCCCCCC)OC(=O)CCCN(CCCC(=O)OC(CCCCCCC)CCCCCCC)C(=O)SCCCN(C)C | 99 | 6.38 | 
CCCCCC/C=C\COC(=O)CCCCCN(CCCC(=O)OC(CCCCCCCC)CCCCCCCC)C(=O)SCCN(C)C | 81 | 5.38 | 
